Literature values, collected in patent US10105372B2, “Methods of treating obesity using antioxidant inflammation modulators” (REATA PHARMACEUTICALS, INC., priority 2010, dated 2018).

Conditions: monkey, in vivo, po; cited from earlier work

COC(=O)[C@]12CCC(C)(C)C[C@H]1[C@H]1C(=O)C=C3[C@@]4(C)C=C(C#N)C(=O)C(C)(C)[C@@H]4CC[C@@]3(C)[C@]1(C)CC2 [Form B, CDDO-Me]
bioavailability: higher than that of Form A
